Test results as given in patent US20110053773A1, “METHODS OF IMPROVING NUTRITIONAL VALUE OF PLANTS” (UNIVERSITY OF TENNESSEE RESEARCH FOUNDATION, priority 2009, published 2011).

Experiments:
[1] = test system: kale 'Red Russian'; experiment: Visual injury of kale after insecticide, fungicide, PGRs, safeners (Example 4)
Protocol: (§1) Greenhouse and laboratory studies were conducted to ascertain the tolerance and nutritional quality differences following postemergence applications of the insecticide chlorpyrifos, the fungicide chlorothalonil, the PGRs mepiquat-chloride and paclobutrazol, and the safeners napthalic anhydride and isoxadifen-ethyl on kale ‘Red Russian’ and basil ‘Genovese’. Visual injury was rated based on general phytotoxicity, chlorosis, and visual stunting and each measurement was based on a percent scale from 0 to 100 where 0 equals no visual response and 100 equals complete plant death. Kale and basil were both harvested approximately 4 weeks after treatments and plants were pooled over replicates for content analysis of crude protein, crude amino acid content, acid detergent fiber, neutral detergent fiber, total fatty acids, and/or key mineral content (including Na, Ca, P, Mg, K, Fe, Mn, Zn, and Cu). In addition, the amounts of key individual amino acids (aspartic acid, threonine, glutamic acid, proline, glycine, cysteine, valine, leucine, isoleucine, methionine, and lysine) and composite classifications of fatty acid (saturated fatty acids, monounsaturated fatty acids, polyunsaturated fatty acids) were also analyzed from these sub-samples for kale (Tables 10-14).

[2] = test system: basil ‘Genovese’; experiment: Yield, fresh weight of basil after insecticide, fungicide, PGRs and safeners (Example 4, Table 10); type: in vivo; settings: DA-A, check 31.8
Protocol: as §1

[3] = test system: basil 'Genovese'; experiment: Content analysis of basil: protein, minerals (Example 4, Tables 10-11); type: in vivo; settings: 28 DA-A, rates g ai/ha: chlropyrifos 1120, chlorothalonil 2630, paclobutrazol 3.23, mepiquat-chloride 12.3, Isoxadifen 8, Napthalic anhydride 264, + NIS 0.25 % v/v
How it was run: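 Postemergence greenhouse applications of chlorpyrifos, chlorothalonil, mepiquat-chloride, paclobutrazol, napthalic anhydride or isoxadifen-ethyl. Injury rated visually for phytotoxicity, chlorosis and stunting on a 0–100% scale (0 = no response, 100 = plant death). Plants harvested ~4 weeks after treatment, pooled over replicates for nutrient content analysis.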

[4] = test system: basil 'Genovese'; experiment: Visual injury of basil after insecticide, fungicide, PGRs, safeners (Example 4)
Protocol: as §1

[5] = test system: kale ‘Red Russian’; experiment: Yield, fresh weight of kale after insecticide, fungicide and PGRs (Example 4, Table 12); type: in vivo; settings: 28 DA-A, Untreated Check 106.9
Protocol: as §1

[6] = 7 DA-A, rates g ai/ha: chlropyrifos 1120, chlorothalonil 2630, paclobutrazol 3.23, mepiquat-chloride 12.3, + NIS 0.25 % v/v
[7] = 7 DA-A, rates g ai/ha: chlropyrifos 3370, chlorothalonil 7900, paclobutrazol 9.7, mepiquat-chloride 37, + NIS 0.25 % v/v
[8] = 14 DA-A, rates g ai/ha: chlropyrifos 1120, chlorothalonil 2630, paclobutrazol 3.23, mepiquat-chloride 12.3, + NIS 0.25 % v/v
[9] = 14 DA-A, rates g ai/ha: chlropyrifos 3370, chlorothalonil 7900, paclobutrazol 9.7, mepiquat-chloride 37, + NIS 0.25 % v/v
[10] = 28 DA-A, rates g ai/ha: chlropyrifos 1120, chlorothalonil 2630, paclobutrazol 3.23, mepiquat-chloride 12.3, + NIS 0.25 % v/v
[11] = 28 DA-A, rates g ai/ha: chlropyrifos 3370, chlorothalonil 7900, paclobutrazol 9.7, mepiquat-chloride 37, + NIS 0.25 % v/v
[12] = 7 DA-A, rates g ai/ha: chlropyrifos 1120, chlorothalonil 2630, paclobutrazol 3.23, mepiquat-chloride 12.3, Isoxadifen 8, Napthalic anhydride 264, + NIS 0.25 % v/v
[13] = 7 DA-A, rates g ai/ha: chlropyrifos 3370, chlorothalonil 7900, paclobutrazol 9.7, mepiquat-chloride 37, Isoxadifen 16, Napthalic anhydride 527, + NIS 0.25 % v/v
[14] = 14 DA-A, rates g ai/ha: chlropyrifos 1120, chlorothalonil 2630, paclobutrazol 3.23, mepiquat-chloride 12.3, Isoxadifen 8, Napthalic anhydride 264, + NIS 0.25 % v/v
[15] = 14 DA-A, rates g ai/ha: chlropyrifos 3370, chlorothalonil 7900, paclobutrazol 9.7, mepiquat-chloride 37, Isoxadifen 16, Napthalic anhydride 527, + NIS 0.25 % v/v
[16] = 28 DA-A, rates g ai/ha: chlropyrifos 1120, chlorothalonil 2630, paclobutrazol 3.23, mepiquat-chloride 12.3, Isoxadifen 8, Napthalic anhydride 264, + NIS 0.25 % v/v
[17] = 28 DA-A, rates g ai/ha: chlropyrifos 3370, chlorothalonil 7900, paclobutrazol 9.7, mepiquat-chloride 37, Isoxadifen 16, Napthalic anhydride 527, + NIS 0.25 % v/v

Structure (SMILES): CCOP(=S)(OCC)Oc1nc(Cl)c(Cl)cc1Cl [chlropyrifos]
- Phytotoxicity General [1, 6]: 14%
- Phytotoxicity Stunting [1, 6]: 9%
- Phytotoxicity Chlorosis [1, 7]: 0%
- Phytotoxicity General [1, 7]: 13%
- Phytotoxicity Stunting [1, 7]: 6%
- Phytotoxicity Chlorosis [1, 8]: 15%
- Phytotoxicity General [1, 8]: 4%
- Phytotoxicity Stunting [1, 8]: 9%
- Phytotoxicity Chlorosis [1, 9]: 13%
- Phytotoxicity General [1, 9]: 5%
- Phytotoxicity Stunting [1, 9]: 10%
- Phytotoxicity Chlorosis [1, 10]: 6%
- Phytotoxicity General [1, 10]: 4%
- Phytotoxicity Stunting [1, 10]: 8%
- Phytotoxicity Chlorosis [1, 11]: 3%
- Phytotoxicity General [1, 11]: 3%
- Phytotoxicity Stunting [1, 11]: 6%
- Yield Fresh weight ([2]; rates g ai/ha: chlropyrifos 1120, chlorothalonil 2630, paclobutrazol 3.23, mepiquat-chloride 12.3, Isoxadifen 8, Napthalic anhydride 264, + NIS 0.25 % v/v): 24.6 grams
- Yield Fresh weight ([2]; rates g ai/ha: chlropyrifos 3370, chlorothalonil 7900, paclobutrazol 9.7, mepiquat-chloride 37, Isoxadifen 16, Napthalic anhydride 527, + NIS 0.25 % v/v): 32.9 grams
- ADF, Percent Increase Over the Untreated Check (on a % dry matter basis) [3]: −12 % check
- Calcium, Percent Increase Over the Untreated Check (on a % dry matter basis) [3]: 7 % check
- Copper, Percent Increase Over the Untreated Check (on a % dry matter basis) [3]: 8 % check
- Iron, Percent Increase Over the Untreated Check (on a % dry matter basis) [3]: 108 % check
- Magnesium, Percent Increase Over the Untreated Check (on a % dry matter basis) [3]: 12 % check
- Manganese, Percent Increase Over the Untreated Check (on a % dry matter basis) [3]: 28 % check
- NDF, Percent Increase Over the Untreated Check (on a % dry matter basis) [3]: −8 % check
- Phosphorous, Percent Increase Over the Untreated Check (on a % dry matter basis) [3]: 11 % check
- Potassium, Percent Increase Over the Untreated Check (on a % dry matter basis) [3]: 12 % check
- Protein, Percent Increase Over the Untreated Check (on a % dry matter basis) [3]: 20 % check
- Sodium, Percent Increase Over the Untreated Check (on a % dry matter basis) [3]: 83 % check
- Soluble protein, Percent Increase Over the Untreated Check (on a % dry matter basis) [3]: 196 % check
- Zinc, Percent Increase Over the Untreated Check (on a % dry matter basis) [3]: 33 % check
- Phytotoxicity Chlorosis [4, 12]: 8%
- Phytotoxicity General [4, 12]: 2%
- Phytotoxicity Stunting [4, 12]: 5%
- Phytotoxicity Chlorosis [4, 13]: 10%
- Phytotoxicity General [4, 13]: 2%
- Phytotoxicity Stunting [4, 13]: 13%
- Phytotoxicity Chlorosis [4, 14]: 3%
- Phytotoxicity General [4, 14]: 7%
- Phytotoxicity Stunting [4, 14]: 10%
- Phytotoxicity Chlorosis [4, 15]: 8%
- Phytotoxicity General [4, 15]: 2%
- Phytotoxicity Stunting [4, 15]: 10%
- Phytotoxicity Chlorosis [4, 16]: 5%
- Phytotoxicity General [4, 16]: 10%
- Phytotoxicity Stunting [4, 16]: 8%
- Phytotoxicity Chlorosis [4, 17]: 7%
- Phytotoxicity General [4, 17]: 2%
- Phytotoxicity Stunting [4, 17]: 12%
- Yield Fresh weight ([5]; rates g ai/ha: chlropyrifos 1120, chlorothalonil 2630, paclobutrazol 3.23, mepiquat-chloride 12.3, + NIS 0.25 % v/v): 108.2 grams
- Yield Fresh weight ([5]; rates g ai/ha: chlropyrifos 3370, chlorothalonil 7900, paclobutrazol 9.7, mepiquat-chloride 37, + NIS 0.25 % v/v): 110.1 grams
